# Results published in patent US20240059671A1, “TYROSINE KINASE 2 (TYK2) DEGRADATION COMPOUNDS AND METHODS OF USE” (CULLGEN (SHANGHAI), INC., priority 2020, published 2024).
# Target: TYK2 (Homo sapiens, UniProt P29597)
# Experiment: TYK2 protein degradation in NOMO-1 cells by immunoblotting
# Type: cell-based
# Parameters: endogenous in cells
# Conditions: NOMO-1 cells
# How it was run: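 NOMO-1 cells in RPMI 1640 with 10% FBS were exposed to compound at 0.1–1000 nM for 16 hours. TYK2 levels in RIPA lysates were measured by SDS-PAGE immunoblot with chemiluminescent detection and band densitometry.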
# Sequence of TYK2 (P29597 whole entry): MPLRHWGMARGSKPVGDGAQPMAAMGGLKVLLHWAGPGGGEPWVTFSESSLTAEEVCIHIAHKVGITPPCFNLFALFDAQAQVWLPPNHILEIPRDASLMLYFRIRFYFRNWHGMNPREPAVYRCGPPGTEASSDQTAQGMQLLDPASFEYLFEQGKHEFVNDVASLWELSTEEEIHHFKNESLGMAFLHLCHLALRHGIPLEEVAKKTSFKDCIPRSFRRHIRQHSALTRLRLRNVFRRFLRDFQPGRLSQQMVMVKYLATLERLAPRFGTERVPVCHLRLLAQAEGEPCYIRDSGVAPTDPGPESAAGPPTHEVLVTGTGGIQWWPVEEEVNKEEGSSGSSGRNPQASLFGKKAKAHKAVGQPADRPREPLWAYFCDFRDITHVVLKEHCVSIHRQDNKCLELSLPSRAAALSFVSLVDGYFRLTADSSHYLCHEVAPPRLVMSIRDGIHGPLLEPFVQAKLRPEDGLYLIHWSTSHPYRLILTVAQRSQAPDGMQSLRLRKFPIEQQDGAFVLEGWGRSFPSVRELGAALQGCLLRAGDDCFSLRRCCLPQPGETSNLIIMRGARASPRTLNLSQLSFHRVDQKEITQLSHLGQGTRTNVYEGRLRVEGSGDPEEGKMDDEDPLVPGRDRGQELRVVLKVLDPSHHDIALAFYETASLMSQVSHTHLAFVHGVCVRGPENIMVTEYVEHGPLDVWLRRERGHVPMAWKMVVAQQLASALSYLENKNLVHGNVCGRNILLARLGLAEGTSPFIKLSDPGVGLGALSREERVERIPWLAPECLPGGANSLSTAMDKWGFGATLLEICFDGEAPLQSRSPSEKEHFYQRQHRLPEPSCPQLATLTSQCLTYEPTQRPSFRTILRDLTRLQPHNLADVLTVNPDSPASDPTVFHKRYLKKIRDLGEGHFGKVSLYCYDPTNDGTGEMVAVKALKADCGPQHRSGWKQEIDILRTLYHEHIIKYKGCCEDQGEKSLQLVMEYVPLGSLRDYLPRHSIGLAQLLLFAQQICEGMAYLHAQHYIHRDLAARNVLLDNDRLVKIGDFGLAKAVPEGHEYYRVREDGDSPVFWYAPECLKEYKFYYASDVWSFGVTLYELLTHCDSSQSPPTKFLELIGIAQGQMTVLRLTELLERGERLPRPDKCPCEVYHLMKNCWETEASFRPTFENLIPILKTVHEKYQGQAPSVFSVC
Structure (SMILES),"TYK2 Degradation (NOMO-1, 10 nM)","TYK2 Degradation (NOMO-1, 100 nM)"
"CNC(=O)c1nnc(Nc2ccc(CNC(=O)CCCCCCCCC(=O)N[C@H](C(=O)N3C[C@H](O)C[C@H]3C(=O)N[C@@H](C)c3ccc(-c4scnc4C)cc3)C(C)(C)C)cn2)cc1Nc1cccc(-c2ncn(C)n2)c1OC [CPD-133, N1-((S)-1-((2S,4R)-4-hydroxy-2-(((S)-1-(4-(4-methylthiazol-5-yl)phenyl)ethyl)carbamoyl)pyrrolidin-1-yl)-3,3-dimethyl-1-oxobutan-2-yl)-N10-((6-((5-((2-methoxy-3-(1-methyl-1H-1,2,4-triazol-3-yl)phenyl)amino)-6-(methylcarbamoyl)pyridazin-3-yl)amino)pyridin-3-yl)methyl)decanediamide]",A (A: ≥60% TYK2 degradation),A (A: ≥60% TYK2 degradation)
"CNC(=O)c1nnc(Nc2ccc(C#CC3CCN(C(=O)CCCC(=O)N[C@H](C(=O)N4C[C@H](O)C[C@H]4C(=O)N[C@@H](C)c4ccc(-c5scnc5C)cc4)C(C)(C)C)CC3)cn2)cc1Nc1cccc(-c2ncn(C)n2)c1OC [CPD-134, 6-((5-((1-(5-(((S)-1-((2S,4R)-4-hydroxy-2-(((S)-1-(4-(4-methylthiazol-5-yl)phenyl)ethyl)carbamoyl)pyrrolidin-1-yl)-3,3-dimethyl-1-oxobutan-2-yl)amino)-5-oxopentanoyl)piperidin-4-yl)ethynyl)pyridin-2-yl)amino)-4-((2-methoxy-3-(1-methyl-1H-1,2,4-triazol-3-yl)phenyl)amino)-N-methylpyridazine-3-carboxamide]",A (A: ≥60% TYK2 degradation),A (A: ≥60% TYK2 degradation)
"CNC(=O)c1nnc(Nc2ccc(C#CC3CN(C(=O)CCCC(=O)N[C@H](C(=O)N4C[C@H](O)C[C@H]4C(=O)N[C@@H](C)c4ccc(-c5scnc5C)cc4)C(C)(C)C)C3)cn2)cc1Nc1cccc(-c2ncn(C)n2)c1OC [CPD-135, 6-((5-((1-(5-(((S)-1-((2S,4R)-4-Hydroxy-2-(((S)-1-(4-(4-methylthiazol-5-yl)phenyl)ethyl)carbamoyl)pyrrolidin-1-yl)-3,3-dimethyl-1-oxobutan-2-yl)amino)-5-oxopentanoyl)azetidin-3-yl)ethynyl)pyridin-2-yl)amino)-4-((2-methoxy-3-(1-methyl-1H-1,2,4-triazol-3-yl)phenyl)amino)-N-methylpyridazine-3-carboxamide]","B (B: <60% TYK2 degradation, and >20% TYK2 degradation)",A (A: ≥60% TYK2 degradation)
"CNC(=O)c1nnc(Nc2ccc(CNC(=O)CCCC(=O)N[C@H](C(=O)N3C[C@H](O)C[C@H]3C(=O)N[C@@H](C)c3ccc(-c4scnc4C)cc3)C(C)(C)C)cn2)cc1Nc1cccc(-c2ncn(C)n2)c1OC [CPD-136, N1-((S)-1-((2S,4R)-4-Hydroxy-2-(((S)-1-(4-(4-methylthiazol-5-yl)phenyl)ethyl)carbamoyl)pyrrolidin-1-yl)-3,3-dimethyl-1-oxobutan-2-yl)-N5-((6-((5-((2-methoxy-3-(1-methyl-1H-1,2,4-triazol-3-yl)phenyl)amino)-6-(methylcarbamoyl)pyridazin-3-yl)amino)pyridin-3-yl)methyl)glutaramide]","B (B: <60% TYK2 degradation, and >20% TYK2 degradation)",A (A: ≥60% TYK2 degradation)
"CNC(=O)c1nnc(Nc2ccc(C(=O)NCC(=O)N[C@H](C(=O)N3C[C@H](O)C[C@H]3C(=O)N[C@@H](C)c3ccc(-c4scnc4C)cc3)C(C)(C)C)cn2)cc1Nc1cccc(-c2ncn(C)n2)c1OC [CPD-137, 6-((5-((2-(((S)-1-((2S,4R)-4-Hydroxy-2-(((S)-1-(4-(4-methylthiazol-5-yl)phenyl)ethyl)carbamoyl)pyrrolidin-1-yl)-3,3-dimethyl-1-oxobutan-2-yl)amino)-2-oxoethyl)carbamoyl)pyridin-2-yl)amino)-4-((2-methoxy-3-(1-methyl-1H-1,2,4-triazol-3-yl)phenyl)amino)-N-methylpyridazine-3-carboxamide]",C (C: ≤20% TYK2 degradation),A (A: ≥60% TYK2 degradation)
"CNC(=O)c1nnc(Nc2ccc(C(=O)NCCC(=O)N[C@H](C(=O)N3C[C@H](O)C[C@H]3C(=O)N[C@@H](C)c3ccc(-c4scnc4C)cc3)C(C)(C)C)cn2)cc1Nc1cccc(-c2ncn(C)n2)c1OC [CPD-138, 6-((5-((3-(((S)-1-((2S,4R)-4-Hydroxy-2-(((S)-1-(4-(4-methylthiazol-5-yl)phenyl)ethyl)carbamoyl)pyrrolidin-1-yl)-3,3-dimethyl-1-oxobutan-2-yl)amino)-3-oxopropyl)carbamoyl)pyridin-2-yl)amino)-4-((2-methoxy-3-(1-methyl-1H-1,2,4-triazol-3-yl)phenyl)amino)-N-methylpyridazine-3-carboxamide]",,C (C: ≤20% TYK2 degradation)
"CNC(=O)c1nnc(Nc2ccc(C(=O)NCCCC(=O)N[C@H](C(=O)N3C[C@H](O)C[C@H]3C(=O)N[C@@H](C)c3ccc(-c4scnc4C)cc3)C(C)(C)C)cn2)cc1Nc1cccc(-c2ncn(C)n2)c1OC [CPD-139, 6-((5-((4-(((S)-1-((2S,4R)-4-Hydroxy-2-(((S)-1-(4-(4-methylthiazol-5-yl)phenyl)ethyl)carbamoyl)pyrrolidin-1-yl)-3,3-dimethyl-1-oxobutan-2-yl)amino)-4-oxobutyl)carbamoyl)pyridin-2-yl)amino)-4-((2-methoxy-3-(1-methyl-1H-1,2,4-triazol-3-yl)phenyl)amino)-N-methylpyridazine-3-carboxamide]",C (C: ≤20% TYK2 degradation),A (A: ≥60% TYK2 degradation)
"CNC(=O)c1nnc(Nc2ccc(C(=O)NCCCCC(=O)N[C@H](C(=O)N3C[C@H](O)C[C@H]3C(=O)N[C@@H](C)c3ccc(-c4scnc4C)cc3)C(C)(C)C)cn2)cc1Nc1cccc(-c2ncn(C)n2)c1OC [CPD-140, 6-((5-((5-(((S)-1-((2S,4R)-4-Hydroxy-2-(((S)-1-(4-(4-methylthiazol-5-yl)phenyl)ethyl)carbamoyl)pyrrolidin-1-yl)-3,3-dimethyl-1-oxobutan-2-yl)amino)-5-oxopentyl)carbamoyl)pyridin-2-yl)amino)-4-((2-methoxy-3-(1-methyl-1H-1,2,4-triazol-3-yl)phenyl)amino)-N-methylpyridazine-3-carboxamide]",C (C: ≤20% TYK2 degradation),A (A: ≥60% TYK2 degradation)
"CNC(=O)c1nnc(Nc2ccc(C(=O)NCCCCCC(=O)N[C@H](C(=O)N3C[C@H](O)C[C@H]3C(=O)N[C@@H](C)c3ccc(-c4scnc4C)cc3)C(C)(C)C)cn2)cc1Nc1cccc(-c2ncn(C)n2)c1OC [CPD-141, 6-((5-((6-(((S)-1-((2S,4R)-4-Hydroxy-2-(((S)-1-(4-(4-methylthiazol-5-yl)phenyl)ethyl)carbamoyl)pyrrolidin-1-yl)-3,3-dimethyl-1-oxobutan-2-yl)amino)-6-oxohexyl)carbamoyl)pyridin-2-yl)amino)-4-((2-methoxy-3-(1-methyl-1H-1,2,4-triazol-3-yl)phenyl)amino)-N-methylpyridazine-3-carboxamide]","B (B: <60% TYK2 degradation, and >20% TYK2 degradation)",A (A: ≥60% TYK2 degradation)
